In ChEMBL document CHEMBL5244253, “Recent research progress on natural small molecule bibenzyls and its derivatives in Dendrobium species” (Eur J Med Chem, 2020):
One block for each compound: values may come before it.

What was measured:
[1] = target: Aldo-keto reductase family 1 member B1 (Homo sapiens, UniProt P15121); test: Inhibition of aldose reductase (unknown origin) using DL-glyceraldehyde as substrate
[2] = Antioxidant activity assessed as DPPH radical scavenging activity incubated for 30 mins by spectrophotometric analysis; type: functional
THP-1 = test: Anti-cancer activity against human THP-1 cells; type: functional, cell-based
NCI-H23 = test: Anti-cancer activity against human NCI-H23 cells; type: functional, cell-based
HL-60 = test: Anti-cancer activity against human HL-60 cells; type: functional, cell-based
FaDu = test: Cytotoxicity against human FaDu cells assessed as cell viability incubated for 24 hrs by CCK-8 assay; type: functional, cell-based
PC-12 [3] = test: Neuroprotection against Amyloid beta (25 to 35)-induced toxicity in rat PC-12 cells assessed as increase in cell viability at 50 uM for 24 hrs by MTT assay relative to control; type: functional
PC-12 [4] = test: Neuroprotection against Amyloid beta (25 to 35)-induced toxicity in rat PC-12 cells assessed as increase in cell viability at 10 uM for 24 hrs by MTT assay relative to control; type: functional
PC-12 [5] = test: Neuroprotection against Amyloid beta (25 to 35)-induced toxicity in rat PC-12 cells assessed as increase in cell viability at 25 uM for 24 hrs by MTT assay relative to control; type: functional
[6] = Permeability of the compound by PAMPA-BBB assay; type: ADME; conditions: read-out: permeability
NCI-H460 = test: Anti-cancer activity against human NCI-H460 cells; type: functional, cell-based
HepG2 [7] = test: Anti-cancer activity against human HepG2 cells; type: functional, cell-based
NCI-H187 = test: Anti-cancer activity against human NCI-H187 cells; type: functional, cell-based
[8] = target: Tyrosine-protein phosphatase non-receptor type 1 (Homo sapiens, UniProt P18031); test: Inhibition of PTP1B (unknown origin)
MCF7 = test: Anti-cancer activity against human MCF7 cells; type: functional, cell-based
K562 = test: Anti-cancer activity against human K562 cells; type: functional, cell-based
Bel-7402 = test: Anti-cancer activity against human Bel-7402 cells; type: functional, cell-based
SGC-7901 = test: Anti-cancer activity against human SGC-7901 cells; type: functional, cell-based
KB = test: Anti-cancer activity against human KB cells; type: functional, cell-based
PC-12 [9] = test: Neurotrophic activity in rat PC-12 cells assessed as induction of NGF-mediated neurite outgrowth at 10 uM measured after 72 hrs relative to control; type: functional
[10] = Antioxidant activity assessed as DPPH radical scavenging activity at 100 ug/ml incubated for 30 mins by spectrophotometric analysis; type: functional; conditions: dose 100.0 µg/ml
RAW264.7 = test: Antiinflammatory activity in mouse RAW264.7 cells assessed as inhibition of LPS-induced NO production at 25 uM measured after 24 hrs; type: functional
T-24 = test: Anti-cancer activity against human T24 cells; type: functional, cell-based
NCI-H292 = test: Anti-cancer activity against human NCI-H292 cells; type: functional, cell-based
HepG2 [11] = test: Cytotoxicity against human HepG2 cells assessed as cell viability incubated for 72 hrs by MTT assay; type: functional, cell-based; conditions: HepG2, 72 h
MDA-MB-231 = test: Cytotoxicity against human MDA-MB-231 cells assessed as cell viability incubated for 72 hrs by MTT assay; type: functional, cell-based; conditions: MDA-MB-231, 72 h
Alpha amylase = Alpha amylase (Homo sapiens, UniProt P0DUB6); test: Inhibition of alpha-amylase (unknown origin) by HPLC analysis
HT-29 = test: Cytotoxicity against human HT-29 cells assessed as cell viability incubated for 72 hrs by MTT assay; type: functional, cell-based; conditions: HT-29, 72 h

Alpha amylase, sequence (P0DUB6 whole entry): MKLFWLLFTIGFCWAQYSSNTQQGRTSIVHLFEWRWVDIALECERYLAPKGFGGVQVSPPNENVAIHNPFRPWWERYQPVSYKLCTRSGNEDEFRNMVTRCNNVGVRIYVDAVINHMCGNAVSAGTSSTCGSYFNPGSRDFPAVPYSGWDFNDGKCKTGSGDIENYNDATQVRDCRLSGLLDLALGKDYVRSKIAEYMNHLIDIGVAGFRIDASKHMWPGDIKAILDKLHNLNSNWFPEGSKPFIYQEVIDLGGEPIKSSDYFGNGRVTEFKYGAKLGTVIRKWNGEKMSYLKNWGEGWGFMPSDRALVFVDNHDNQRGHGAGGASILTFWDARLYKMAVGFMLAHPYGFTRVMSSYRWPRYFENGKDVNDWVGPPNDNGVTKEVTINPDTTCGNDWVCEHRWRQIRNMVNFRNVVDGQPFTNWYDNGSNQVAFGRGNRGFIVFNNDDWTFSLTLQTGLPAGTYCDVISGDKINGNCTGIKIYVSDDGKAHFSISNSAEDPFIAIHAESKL
Tyrosine-protein phosphatase non-receptor type 1, sequence (P18031 whole entry): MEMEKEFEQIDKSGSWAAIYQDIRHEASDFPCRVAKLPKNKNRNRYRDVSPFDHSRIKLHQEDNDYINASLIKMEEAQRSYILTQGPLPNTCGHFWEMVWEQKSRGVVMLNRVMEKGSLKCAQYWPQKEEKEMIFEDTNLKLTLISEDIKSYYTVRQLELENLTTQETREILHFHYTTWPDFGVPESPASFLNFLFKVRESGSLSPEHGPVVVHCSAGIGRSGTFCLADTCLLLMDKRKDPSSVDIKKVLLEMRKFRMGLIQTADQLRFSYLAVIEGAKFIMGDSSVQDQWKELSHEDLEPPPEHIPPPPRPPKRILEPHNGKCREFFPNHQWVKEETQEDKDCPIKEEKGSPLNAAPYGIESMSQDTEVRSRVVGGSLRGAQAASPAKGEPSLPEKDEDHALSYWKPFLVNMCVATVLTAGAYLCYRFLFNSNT

SMILES: CCCC(=O)Oc1c(OC)cc(CCc2ccc(OC)c(OC)c2)cc1OC
- Activity (PC-12 [3]): 49.37%
- Activity (PC-12 [4]): 54.89%
- Activity (PC-12 [5]): 50.12%

SMILES: COc1ccc(CCc2cc(OC)c(OC(=O)c3ccccc3)c(OC)c2)cc1OC
- Papp [6]: 6.9 ×10⁻⁶ cm/s
- Activity (PC-12 [3]): 100.78%
- Activity (PC-12 [4]): 58.18%
- Activity (PC-12 [5]): 80.12%

SMILES: COc1ccc(CCc2cc(OC)c(OCc3ccccc3)c(OC)c2)cc1OC
- Papp [6]: 8.2 ×10⁻⁶ cm/s
- Activity (PC-12 [3]): 71%
- Activity (PC-12 [4]): 58.22%
- Activity (PC-12 [5]): 60.89%

SMILES: COc1cc(O)cc(CCc2cccc(O)c2)c1 [BATATASIN III]
- inhibition [10]: 36.3%
- Activity (PC-12 [9]): 8.2%
- inhibition at 25 µM (RAW264.7): 21.6%

SMILES: COc1ccc(CCc2cc(OC)c(OCCC(C)C)c(OC)c2)cc1OC
- Activity (PC-12 [3]): 49.48%
- Activity (PC-12 [4]): 50.21%
- Activity (PC-12 [5]): 50.16%

SMILES: COc1ccc(CCc2cc(OC)c(OC)c(OC)c2)cc1O
- IC50 (T-24): 0.46 µM

SMILES: COc1ccc(CCc2cc(OC)c(OC(=O)CCc3ccccc3)c(OC)c2)cc1OC
- Activity (PC-12 [3]): 49.84%
- Activity (PC-12 [4]): 54%
- Activity (PC-12 [5]): 50.22%

SMILES: COc1ccc(CCc2cc(OC)c(OC(=O)c3ccc(Cl)cc3)c(OC)c2)cc1OC
- Papp [6]: 6.2 ×10⁻⁶ cm/s
- Activity (PC-12 [3]): 95.62%
- Activity (PC-12 [4]): 56.41%
- Activity (PC-12 [5]): 69.24%

SMILES: CCC(C)Oc1c(OC)cc(CCc2ccc(OC)c(OC)c2)cc1OC (stereo unspecified)
- Activity (PC-12 [3]): 48.75%
- Activity (PC-12 [4]): 49.02%
- Activity (PC-12 [5]): 49.73%

SMILES: COc1cc(CCc2cc(OC)c(OC)c(OC)c2)ccc1O
- IC50 [2]: 21.8 µM
- IC50 (NCI-H23): 158 µM

SMILES: COC1=CC(O)(CCc2ccc(O)c(OC)c2)C=C(OC)C1=O
- inhibition [10]: 35.3%
- inhibition at 25 µM (RAW264.7): 19.7%

SMILES: COc1ccc(CC2c3cc(O)cc(CCc4ccc(O)cc4)c3Oc3c2cc(O)c(OC)c3O)cc1 (stereo unspecified)
- IC50 (HL-60): 2.1 µM

SMILES: Oc1cc(O)cc(CCc2ccc3c(c2)OCO3)c1
- inhibition [10]: 88%
- inhibition at 25 µM (RAW264.7): 22.1%

SMILES: COc1ccc(CCc2cc(OC)c(O)c3c2C(Cc2ccc(O)cc2)c2cc(O)c(O)c(OC)c2O3)cc1 (stereo unspecified)
- IC50 [2]: 32.4 µM

SMILES: COc1ccc(CCc2cc(OC)c(OC)c(OC)c2)cc1OC
- IC50 (NCI-H23): 252 µM

SMILES: CCCCC(C)Oc1c(OC)cc(CCc2ccc(OC)c(OC)c2)cc1OC (stereo unspecified)
- Activity (PC-12 [3]): 52.18%
- Activity (PC-12 [4]): 50.67%
- Activity (PC-12 [5]): 50.25%

SMILES: COc1ccc(CCc2cc(OC)c(OCC(C)C)c(OC)c2)cc1OC
- Activity (PC-12 [3]): 49.89%
- Activity (PC-12 [4]): 54.53%
- Activity (PC-12 [5]): 50.12%

SMILES: COc1ccc(CCc2cc(OC)c(OC3CCCC3)c(OC)c2)cc1OC
- Papp [6]: 7.6 ×10⁻⁶ cm/s
- Activity (PC-12 [3]): 72.64%
- Activity (PC-12 [4]): 54.77%
- Activity (PC-12 [5]): 61.02%

Further lines, with some results ahead:

- IC50 [1]: 39.2 µM
SMILES: COc1cc(CCc2ccc(O)c(O)c2)cc(OC)c1

- IC50 [2]: 17.1 µM
- IC50 (THP-1): 226 µM
- IC50 (NCI-H23): 33.4 µM
- IC50 (HL-60): 0.082 µM
SMILES: COc1cc(CCc2cc(OC)c(O)c(OC)c2)ccc1O [MOSCATILIN]
- IC50 (FaDu): 2.55 µM

- IC50 [2]: 34.5 µM
SMILES: CCO[C@@H](Cc1ccc(O)cc1)c1cc(O)c(O)c(OC)c1

- IC50 [2]: 15.6 µM
SMILES: COc1cc(CCc2ccc(O)c(O)c2)cc(O)c1O

- IC50 (NCI-H460): 76.9 µM
- IC50 (HepG2 [7]): 9.3 µM
- IC50 (NCI-H187): 235 µM
- IC50 [2]: 17.7 µM
- IC50 (THP-1): 23.3 µM
- IC50 [8]: 73.3 µM
- IC50 (MCF7): 67.8 µM
- IC50 (HL-60): 10.6 µM
- IC50 (K562): 63.9 µM
- IC50 (Bel-7402): 13 µM
- IC50 (SGC-7901): 17.4 µM
- IC50 (KB): 61.9 µM
SMILES: COc1cc(O)cc(CCc2ccc(O)c(OC)c2)c1 [GIGANTOL]

- IC50 (HL-60): 25.6 µM
SMILES: COc1cc(O)cc(CCc2ccc(O)cc2)c1
- Activity (PC-12 [9]): 12.08%

- IC50 (SGC-7901): 16.7 µM
SMILES: COc1cc(CCc2cc(O)c(OC)c(OC)c2)ccc1O

- IC50 [1]: 21.8 µM
SMILES: Oc1ccc(CCc2cc(Cl)ccc2O)cc1O

- IC50 (NCI-H292): 198 µM
SMILES: COc1cc(CCc2ccc(O)cc2)cc(OC)c1O
- Activity (PC-12 [9]): 6.94%

- IC50 (NCI-H292): 96.6 µM
SMILES: COc1cc(CCc2cc(O)c(O)c(OC)c2)ccc1O

- IC50 (Alpha amylase): 5990 µM
- IC50 (HL-60): 10.7 µM
SMILES: COc1ccc(CCc2cc(O)c(O)c(OC)c2)cc1
- IC50 (HepG2 [11]): 138 µM
- IC50 (MDA-MB-231): 80.5 µM
- IC50 (HT-29): 88.2 µM

- IC50 [1]: 534 µM
SMILES: Oc1ccc(CCc2ccc(O)c(O)c2)cc1O

- IC50 [2]: 34.2 µM
SMILES: COc1cc([C@H](Cc2ccc(O)cc2)OC)cc(O)c1O
